Results taken from patent publication US8921365B2, “Pharmaceutical composition, substrate comprising a pharmaceutical composition, and use of a pharmaceutical composition” (priority 2007, dated 2014).
Where two headings read alike, the source gives them in different places.

Legend:
S. aureus BAA44 [1] = experiment: Acute infection of osteoblastic MG63 cells without lysostaphin, CFU per well of intracellular and adhered bacteria; format: cell-based, Staphylococcus aureus; conditions: for effect on CFU per well of intracellular and adhered S. aureus BAA44: 18 h, FIG. 6
Experimental: (§1) Osteoblastic MG63 cells were detached with the cell detachment medium Accutase 24 hours before infection. The cell number was determined using the Neubauer counting chamber. Cells were seeded onto uncoated 24 well plates with a cell density of 1.5×10^4 cells/cm^2 in 1 ml DMEM (Dulbecco's Modified Eagle's Medium) with 10% FCS (fetal calf serum), 1% Glutamax-I and 1% Natrium Pyruvat and incubated at 37° C. and 5% CO2.
The cell culture supernatant of the osteoblastic MG63 cells was removed with a pipette from the wells. 1 ml containing 1×10^6 S. aureus BAA44 CFU was added to each well containing also antibiotics having the following compositions: • 50 μg/ml vancomycin • 2.5 μg/ml rifampin • 1.25-10 μg/ml daptomycin • and their mixtures in different ratios as given below.
The combined osteoblastic cells, bacteria, and antibiotic compositions were incubated for 18 h at 37° C. under 5% CO2 atmosphere.
Afterwards the cells were washed once with PBS pH 7.4 (phosphate buffer solution) followed by lysis with 1 ml 0.1% Triton X100 in ringer's solution. The lysates were thoroughly resuspended with a pipette. Only one 24 well plate was handled and the other plates were stored at 4° C. in order to minimize bacterial growth in the lysate.
(§2) The lower the CFU value is the lower is the infection rate of the osteoblastic cells with S. aureus BAA44. This correlates to the efficacy of the added antibiotic.

[2] = tested on: S. aureus BAA44 in osteoblastic MG63 cells; experiment: Intracellular infection of osteoblastic MG63 cells after lysostaphin, cell lysis and intracellular CFU count; format: cell-based, Staphylococcus aureus; conditions: 24 h; fosfomycin 50-400 μg/ml, rifampin 2.5-40 μg/ml, mixtures in varying ratios; FIG. 4a-g
Experimental: Only one 24 well plate was handled and the other plates were stored at 4° C. in order to minimize bacterial growth in the lysate.
as §2

S. aureus ATTC 6538P [3] = experiment: Extracellular infection of osteoblastic MG63 cells, CFU in cell culture supernatant; format: cell-based, Staphylococcus aureus; conditions: 24 h; 100 μg/ml gentamicin, 1 μg/ml rifampin, 100 μg/ml fosfomycin disodium, alone or combined with rifampin; FIG. 1
Experimental: as §1
The cell culture supernatant of the osteoblastic MG63 cells was removed with a pipette from the wells. 1 ml containing 1×10^6 S. aureus ATTC 6538P cells was added to each well. Two 24 well plates were incubated with S. aureus ATTC 6538P. The combined osteoblastic cells and bacteria were incubated for 1.5 h at 37° C. under 5% CO2 atmosphere. The presence of bacteria was determined using a microscope.
After 1.5 h the supernatant was removed and the wells were carefully washed twice with 37° C. warm DMEM without additives. It was microscopically checked, if not too many cells were detached during the washing procedure.
After incubation for 24 h, 100 μl of the cell culture supernatant was streaked out on Caso agar plates (Casein-peptone soymeal-peptone broth) directly, e.g. in case of rifampin, fosfomycin, rifampin/fosfomycin and rifmpicin/gentamicin, or after appropriate dilution, e.g. 1:100 in case of gentamicin, and incubated overnight at 37° C. […]

[4] = in vivo; cited from earlier work
[5] = tested on: S. aureus ATTC 6538P in osteoblastic MG63 cells; experiment: Intracellular infection of osteoblastic MG63 cells after lysostaphin, metabolic activity (MTT, absorbance 540 nm); conditions: 24 h
S. aureus BAA44 [6] = experiment: Extracellular infection of osteoblastic MG63 cells, CFU in cell culture supernatant; format: cell-based, Staphylococcus aureus; conditions: 24 h; 100 μg/ml vancomycin, 10 μg/ml rifampin, 100 μg/ml fosfomycin, alone or combined with rifampin; rifampin resistant MRSA strain; FIG. 2
Experimental: Following antibiotics were used: • 100 μg/ml vancomycin • 10 μg/ml rifampin • 100 μg/ml fosfomycin • 10 μg/ml rifampin+100 μg/ml fosfomycin • 10 μg/ml rifampin+100 μg/ml vancomycin.
After incubation for 24 h 100 μl of the cell culture were streaked out on Caso agar plates (Casein-peptone soymeal-peptone broth) directly, e.g. in case of vancomycin, rifampin/fosfomycin and rifampin/vancomycin, or after appropriate dilution, e.g. 1:100 in case of rifampin and fosfomycin, and incubated overnight at 37° C. The supernatant of two wells per group was streaked out.

S. aureus = conditions: drug concentration-dependent; cited from earlier work
S. aureus BAA44 [7] = experiment: Adhesion of bacteria on coated titanium discs, CFU per disc; format: cell-based, Staphylococcus aureus; conditions: 1.5 h, 200 μg/cm^2 vancomycin or 50 μg/cm^2 rifampin + 200 μg/cm^2 fosfomycin calcium, FIG. 5c
Experimental: The experimental set up was essentially the same as described above for S. aureus ATTC 6538P.
The coated titanium discs were washed either once or twice with 5 ml PBS before incubation with S. aureus BAA44 for 1.5 h.

S. aureus ATTC 6538P [8] = conditions: 200 μg/cm^2 vancomycin, FIG. 5a
Experimental: An overnight culture of S. aureus ATTC 6538P was prepared by infecting 5 ml Caso-Bouillon medium with S. aureus ATTC 6538P. The cultures were incubated with shaking (450 U/min) over night at 37° C. 100 μl of the overnight cultures were transferred into 5 ml Caso Boulillon medium and incubated for 2 h at 37° C. with shaking (450 U/min). The bacterial density was determined photometrically. The bacterial suspension was diluted 1:2 in Caso Bouillon prior measurement. A bacterial suspension with a density of 1×10^5 CFU/ml in Caso Boullion with 10% FCS was used for the adhesion experiments.
After coating the titanium discs were washed either one time or three times with PBS. The coated and uncoated titanium discs were incubated for 5 min at room temperature with 5 ml PBS. This was repeated two more times. In the third circle the titanium discs were incubated for 1 h at room temperature. Before removing the PBS solution the titanium discs were turned or swiveled in order to increase the detachment of the antibiotics. Afterwards the titanium discs were transferred into sterile 12 well plates. […]
Afterwards the bacterial suspension was removed and the discs were washed three times with 2.5 ml PBS. […] The agar plates were incubated over night at 37° C. and the next day the colonies were counted.

S. aureus BAA44 [9] = experiment: Bactericidal activity of coated titanium discs in Minimal Medium, CFU in supernatant and on discs; format: cell-based, Staphylococcus aureus; conditions: 15.5 h in Minimal Medium, discs washed three times
Experimental: The bacterial density was determined photometrically.
The Minimal Medium was used instead of Caso Bouillon to minimize the bacterial growth.
Afterwards the CFU in the supernatant as well as the adhered bacteria on the titanium discs were analysed. The supernatant was diluted 1:10 in PBS, 100 μl of the dilution were streaked out on Caso agar plates.

[10] = 2.5 μg/ml rifampin, 50 μg/ml vancomycin
[11] = 100 μg/ml vancomycin, 100 μg/ml gentamicin, 0.01-100 μg/ml rifampin, 1 μg/ml rifampin + 100 μg/ml fosfomycin or gentamicin, FIG. 3a-d

SMILES: CCCCCCCCCC(=O)N[C@@H](Cc1c[nH]c2ccccc12)C(=O)N[C@H](CC(N)=O)C(=O)N[C@@H](CC(=O)O)C(=O)N[C@@H]1C(=O)NCC(=O)N[C@@H](CCCN)C(=O)N[C@@H](CC(=O)O)C(=O)N[C@H](C)C(=O)N[C@@H](CC(=O)O)C(=O)NCC(=O)N[C@H](CO)C(=O)N[C@@H]([C@H](C)CC(=O)O)C(=O)N[C@@H](CC(=O)c2ccccc2N)C(=O)O[C@@H]1C [daptomycin]
- effect on CFU per well of intracellular and adhered S. aureus BAA44 (S. aureus BAA44 [1]; 1.25 μg/ml daptomycin): good efficacy
- effect on CFU per well of intracellular and adhered S. aureus BAA44 (S. aureus BAA44 [1]; 2.5 μg/ml daptomycin): good efficacy
- effect on CFU per well of intracellular and adhered S. aureus BAA44 (S. aureus BAA44 [1]; 5 μg/ml daptomycin): eradicate the infection completely
- effect on CFU per well of intracellular and adhered S. aureus BAA44 (S. aureus BAA44 [1]; 10 μg/ml daptomycin): eradicate the infection completely

SMILES: C[C@@H]1O[C@@H]1P(=O)(O)O [fosfomycin]
- effect on CFU per well of intracellular located S. aureus BAA44 [2]: good efficacy
- effect on CFU of S. aureus ATTC 6538P in cell culture supernatant (S. aureus ATTC 6538P [3]): moderate
- concentrations allowing for intravenous application [4]: 100 to 400 µg/mL
- concentrations allowing for intravenous application, preferred, in serum [4]: 132 to 297 µg/mL
- metabolic activity of infected osteoblastic MG63 cells ([5]; 10 μg/ml fosfomycin, FIG. 3b): increases the metabolic activity only slightly
- metabolic activity of infected osteoblastic MG63 cells ([5]; 100 μg/ml fosfomycin, FIG. 3b): almost doubled
- effect on CFU of S. aureus BAA44 in cell culture supernatant (S. aureus BAA44 [6]): relatively small

SMILES: CO[C@H]1/C=C/O[C@@]2(C)Oc3c(C)c(O)c4c(O)c(c(/C=N/N5CCN(C)CC5)c(O)c4c3C2=O)NC(=O)/C(C)=C\C=C\[C@H](C)[C@H](O)[C@@H](C)[C@@H](O)[C@@H](C)[C@H](OC(C)=O)[C@@H]1C [rifampin]
- effect on CFU per well of intracellular located S. aureus BAA44 [2]: good intracellular potency
- effect on CFU of S. aureus ATTC 6538P in cell culture supernatant (S. aureus ATTC 6538P [3]): moderate
- overgrowth of the MG63 cells with planktonic S. aureus BAA44 (S. aureus BAA44 [1]; 2.5 μg rifampin, data not shown): prevented efficacious
- effect on CFU per well of intracellular and adhered S. aureus BAA44 (S. aureus BAA44 [1]; [10]): less than for vancomycin and daptomycin
- metabolic activity of infected osteoblastic MG63 cells [5, 11]: reduce the cell death caused by S. aureus ATTC 6538P drastically
- concentration sufficient in increasing the metabolic activity ([5]; FIG. 3a): 0.006 µg/mL
- effect on CFU of S. aureus BAA44 in cell culture supernatant (S. aureus BAA44 [6]): hardly any efficacy

SMILES: O=C(O)c1ccccc1O [salicylic acid]
- maximum reduction of S. aureus virulence parameters (S. aureus): approximately 50%

SMILES: CN[C@H](CC(C)C)C(=O)N[C@H]1C(=O)N[C@@H](CC(N)=O)C(=O)N[C@H]2C(=O)N[C@H]3C(=O)N[C@H](C(=O)N[C@H](C(=O)O)c4cc(O)cc(O)c4-c4cc3ccc4O)[C@H](O)c3ccc(c(Cl)c3)Oc3cc2cc(c3O[C@@H]2O[C@H](CO)[C@@H](O)[C@H](O)[C@H]2O[C@H]2C[C@](C)(N)[C@H](O)[C@H](C)O2)Oc2ccc(cc2Cl)[C@H]1O [vancomycin]
- anti-adhesive effect, CFU per titanium disc (S. aureus BAA44 [7]; discs washed once): reduced the adhesion
- anti-adhesive effect, CFU per titanium disc (S. aureus BAA44 [7]; discs washed twice): no reduction of bacterial adhesion
- anti-adhesive effect, CFU per titanium disc (S. aureus ATTC 6538P [8]; discs washed one time before 1.5 h incubation): anti-adhesive effect after one washing step
- anti-adhesive effect, CFU per titanium disc (S. aureus ATTC 6538P [8]; discs washed three times before 1.5 h incubation): did not reveal any anti-adhesive effect
- bactericidal effect of the coating (S. aureus BAA44 [9]): could not exhibit any bactericidal effect
- CFU in the supernatant (S. aureus BAA44 [9]; 200 μg/cm^2 vancomycin or 300 μg/cm^2 fosfomycin calcium + 70 μg/cm^2 rifampin, FIG. 5d): reduced the bacterial growth in the cell culture supernatant compared to the uncoated control slightly
- CFU adhered to the titanium disc (S. aureus BAA44 [9]; FIG. 5d): more than 50,000 CFU
- effect on CFU per well of intracellular and adhered S. aureus BAA44 (S. aureus BAA44 [1]; [10]): several hundred
- metabolic activity of infected osteoblastic MG63 cells [5, 11]: strongly reduced
